Results from publication PMC6421704 (Journal of Experimental & Clinical Cancer Research : CR, 2019).
Entries after “also recorded” stand apart in the source; their conditions may differ. Where two headings read alike, the source gives them in different places.

Key:
C-KIT(v654A) = C-KIT(v654A) (Homo sapiens, UniProt P10721, V654A); assay: In vitro kinase activity assay (Caliper assay format); format: biochemical
[1] = test system: HepG2 cell line tumor xenografts; assay: TUNEL staining of HepG2 tumor xenografts; format: in vivo, nude mice; details: HepG2 xenograft, Indo5-treated
EGFR = EGFR (Homo sapiens, UniProt P00533); assay: In vitro kinase activity assay (HDB Kinase Selectivity Profiling); format: biochemical; details: Kinase Glo Plus assay format
HepG2 cells [2] = assay: BDNF-induced HepG2 cell migration; details: HepG2, BDNF 50 ng/ml, 24 h
Protocol: (§3) For the migration assay, 2×10^5 cells were seeded on 8µm polycarbonate membrane (Transwell; Costar). […] After 24h migration cells were counted.

EPHA1 = EPHA1 (Homo sapiens, UniProt P21709); assay: In vitro kinase activity assay (HDB Kinase Selectivity Profiling); format: biochemical; details: Kinase Glo Plus assay format
PDGFRα = PDGFRα (Homo sapiens, UniProt P16234); assay: as above; format: biochemical; details: Kinase Glo Plus assay format
Ephb1 = Ephb1 (Homo sapiens, UniProt P54762); assay: In vitro kinase activity assay (Caliper assay format); format: biochemical
[3] = Body weight in HepG2 xenograft nude mice model; format: in vivo; details: Indo5 vs control groups
TrkA signaling = assay: NGF-induced TrkA signaling in SK-N-SH cells (Western blot); details: 1 μM Indo5, pretreated 2 h, NGF 500 ng/ml 5 min
Protocol: (§4) Data are shown as the mean ± S.D. and are representative of three independent experiments. ** p < 0.01, *** p < 0.001.
(§5) For western blots, cells were lysed with M-PER? Mammalian Protein Extraction Reagent (Pierce, Rockford, IL, USA). Then, western blot analysis was performed according to standard procedures. Chemiluminescent detection was conducted using supersignal substrate (Pierce) according to the manufacturer’s specifications.

HCC-LM3 = assay: Inhibition of cell proliferation (MTS assay); format: cell-based; details: Homo sapiens, HCCLM3, HCC-LM3, c-Met^hiTrkB^hi, 72 h
Protocol: (§1) All experiments were conducted three times.

L02 = assay: Inhibition of cell proliferation (MTS assay); format: cell-based; details: Homo sapiens, L02, c-Met^hiTrkB^lo (non-cancerous cells), 72 h
Protocol: as §1

MRC-5 = assay: Inhibition of cell proliferation (MTS assay); format: cell-based; details: Homo sapiens, MRC5, MRC-5, c-Met^loTrkB^lo (non-cancerous cells), 72 h
Protocol: as §1

NCI-H460 = assay: Inhibition of cell proliferation (MTS assay); format: cell-based; details: Homo sapiens, NCI-H460, c-Met^loTrkB^lo, 72 h
Protocol: as §1

SK-N-SH = assay: Inhibition of cell proliferation (MTS assay); format: cell-based; details: Homo sapiens, c-Met^loTrkB^hi, 72 h
Protocol: as §1

A549 = assay: Inhibition of cell proliferation (MTS assay); format: cell-based; details: Homo sapiens, A549, c-Met^hiTrkB^hi, 72 h
Protocol: as §1

SMMC-7721 = assay: Inhibition of cell proliferation (MTS assay); format: cell-based; details: Homo sapiens, SMMC-7721, c-Met^loTrkB^hi, 72 h
Protocol: as §1

BEL-7402 = assay: Inhibition of cell proliferation (MTS assay); format: cell-based; details: Homo sapiens, BEL-7402, c-Met^loTrkB^lo, 72 h
Protocol: as §1

IGF1R = IGF1R (Homo sapiens, UniProt P08069); assay: In vitro kinase activity assay (HDB Kinase Selectivity Profiling); format: biochemical; details: Kinase Glo Plus assay format
wild-type Ba/F3 cells = assay: Proliferation of wild-type Ba/F3 cells
EGFR(T790,L858R) = EGFR(T790,L858R) (Homo sapiens, UniProt P00533, L858R/T790M); assay: In vitro kinase activity assay (HDB Kinase Selectivity Profiling); format: biochemical; details: Kinase Glo Plus assay format
[4] = test system: c-Met^loTrkB^hi and c-Met^loTrkB^lo cells; assay: Cell growth of cells expressing TrkB alone or both low; format: cell-based; details: Homo sapiens, read-out: IC50 value, range over cell lines
HCC metastasis in lung = assay: Lung metastasis in mice bearing MHCC97H orthotopic tumors (H&E); format: in vivo; details: Indo5 treatment
Ba/F3-Tpr-Met cells [5] = details: 0.5 μM Indo5
SMMC-7721 xenograft = SMMC-7721 xenograft mice; format: in vivo
Protocol: (§2) Tumor growth was measured using vernier calipers, and tumor volume (mm^3) was calculated as (L × W × H)/2. When the mean tumor volume reached 200 mm^3, the mice were randomized into four groups and treatment was initiated. Indo5 in DMSO was injected intraperitoneally into the mice once daily at the indicated doses. Tumor volume were recorded every 3 days until the study was terminated. The mice were sacrificed after 21 days of treatment. Solid tumors were excised and weighed, and the inhibition rate was calculated as […].

Ba/F3-Tpr-Met cells [6] = assay: cells; details: Mus musculus, read-out: IC50 of IL-3-independent growth
HepG2 cells [7] = assay: HGF-induced HepG2 cell migration (Transwell); details: HepG2, HGF 20 ng/ml, 24 h, dose-dependent
Protocol: as §3

InsR = InsR (Homo sapiens, UniProt P06213); assay: In vitro kinase activity assay (HDB Kinase Selectivity Profiling); format: biochemical; details: Kinase Glo Plus assay format
[8] = test system: EGF receptor-mediated signaling pathway; assay: EGF receptor-mediated signaling pathway in A549 cells (Western blot); details: A549, Indo5 pretreated 2 h, 100 ng/ml EGF 5 min
c-Met signaling pathway = assay: HGF-induced c-Met signaling pathway activation in HepG2 cells (Western blot)
Protocol: (a) HepG2 cells were treated with HGF (10 ng/ml) alone or HGF (10 ng/ml) and BDNF (10 ng/ml) for the indicated time and the activation of c-Met signaling pathway was examined.
as §5

[9] = Body weight in liver orthotopic mouse model; format: in vivo, mice
[10] = test system: VEGF receptor-mediated signaling pathway; assay: VEGF receptor-mediated signaling pathway in A549 cells (Western blot); details: A549, Indo5 pretreated 2 h, 100 ng/ml VEGF 5 min
[11] = test system: orthotopic HepG2 cell xenografts; assay: Orthotopic HepG2 cell xenografts (liver orthotopic mouse model)
RET = RET (Homo sapiens, UniProt P07949); assay: In vitro kinase activity assay (HDB Kinase Selectivity Profiling); format: biochemical; details: Kinase Glo Plus assay format
MHCC97L = assay: cells; details: Homo sapiens, 72 h, read-out: IC50 (μM) ± SD
Protocol: as §1

MHCC97H = assay: cells; details: Homo sapiens, 72 h, read-out: IC50 (μM) ± SD
Protocol: as §1

[12] = test system: c-Met and TrkB coexpressing cell lines (c-Met^hiTrkB^hi); assay: Cell growth of c-Met and TrkB coexpressing cell lines; format: cell-based; details: Homo sapiens, read-out: IC50 value, range over cell lines
AXL = AXL (Homo sapiens, UniProt P30530); assay: In vitro kinase activity assay (HDB Kinase Selectivity Profiling); format: biochemical; details: Kinase Glo Plus assay format
FLT1 = FLT1 (Homo sapiens, UniProt P17948); assay: as above; format: biochemical; details: Kinase Glo Plus assay format
[13] = Cytotoxicity in non-cancerous cells; format: cell-based; details: human
MDCK cells [14] = assay: MDCK cell proliferation (MTS assay); format: cell-based, Canine; details: scattering conditions
Protocol: as §1
Figure S1. […] Cell proliferation was anaylzed with MTS assay.

HepG2 cells [15] = assay: HepG2 cell proliferation under HGF migration conditions (MTS assay); format: cell-based, human
Protocol: as §1
Figure S2. […] Cell proliferation was anaylzed with MTS assay.

mouse hepatocytes = assay: HGF-induced proliferation of mouse hepatocytes (MTS assay)
Half-life in plasma = format: in vitro ADME; details: data not shown
TrkB signaling = assay: BDNF-induced TrkB signaling in HepG2 cells (Western blot); format: cell-based, human
Protocol: as §4
(b) HepG2 cells were treated with BDNF (10 ng/ml) alone or BDNF (10 ng/ml) and HGF (10 ng/ml) for the indicated time and the activation of TrkB signaling pathway was examined. […] The activation of the TrkB and c-Met signaling pathways were examined. […] The activation of the TrkB and c-Met signaling pathways were examined. […] Data are shown as the mean ± S.D. and are representative of three independent experiments. **p < 0.01, ***p < 0.001
as §5

[16] = test system: MHCC97H orthotopic tumors
Source text: For the orthotopic xenograft mouse model, MHCC97H cells were inoculated subcutaneously in the right flank of each SCID mouse. When the tumor volumes reached approximately 1 cm^3, the mice were sacrificed, and the tumors were isolated and cut into 1 mm^3 pieces. The mice were anesthetized by an intraperitoneal injection of 1% sodium pentobarbital solution. A 1-cm longitudinal skin incision was made on the right upper axillary region of the abdomen of the mouse, the peritoneum was opened and the liver was exposed. The liver was punctured by a needle, and a 1 mm^3 tumor piece was implanted. The liver was put back into the abdominal cavity gently, and the surgical opening was closed using a 5–0 surgical suture.
The tumor weights were measured (b). […] Tumor-bearing mice were sacrificed when they became moribund.

MDCK cells [17] = assay: HGF-stimulated MDCK cell scattering; details: Indo5 pretreated 2 h, HGF 20 ng/ml 12 h, dose-dependent
Protocol: Cells were plated into 96-well plates (1.5 × 10^3 cells/well) and grown until small colonies appeared. […] After 24h incubation, cells were fixed with 90% methanol for 30min at room temperature and stained by 1% crystal violet. Scattered clones were photographed.

orthotopic tumors = assay: Histological examination of liver from mice bearing orthotopic tumors (H&E); format: in vivo; details: 48 mg/kg Indo5
Source text: Figure S8. H&E staining of livers from mice bearing orthotopic tumors treated with the vehicle or Indo5.

Ba/F3-TrkB cells = assay: BDNF-induced growth of TrkB-transfected Ba/F3 cells; details: BDNF 50 ng/ml 48 h, dose-dependent
Protocol: Cell proliferation was measured and the proliferation index was calculated. […] Data are shown as the mean ± S.D. and are representative of three independent experiments. ** p < 0.01, *** p < 0.001.

SK-N-SH xenograft = SK-N-SH xenograft mice; format: in vivo
Protocol: as §2

[18] = test system: HepG2 cell line tumor xenografts; assay: HepG2 xenograft tumor model in nude mice; format: in vivo
Protocol: First, 2 × 10^6 HepG2 cells, 4 × 10^6 MHCC 97H cells, 4 × 10^6MHCC 97 L cells, 2 × 10^6 A549 cells, or 5 × 10^6 SMMC-7721 cells in a volume of 200 μl PBS were inoculated subcutaneously in the right flank of each mouse. Tumor growth was measured using vernier calipers, and tumor volume (mm^3) was calculated as (L × W × H)/2. When the mean tumor volume reached 200 mm^3, the mice were randomized into four groups and treatment was initiated. […] Tumor volume were recorded every 3 days until the study was terminated. The mice were sacrificed after 21 days of treatment.
The inhibition rate was calculated.
The tumor weights were measured, and the inhibition rate was calculated. Data are shown as the mean ± S.D. and are representative of three independent experiments. **p < 0.01, ***p < 0.001

[19] = test system: HGF-induced vasculature formation; assay: Matrigel plug assay, HGF-induced angiogenesis in vivo; set-up: species or system BALB/c mice; details: Matrigel plug with HGF (50 ng/ml) and Indo5 (10 μM, 20 μM), 7 days
Protocol: After 7 days, mice were sacrificed and the Matrigel plugs were fixed in 10% buffered formaldehyde, which was embedded in paraffin, and sectioned. The sections were stained with hematoxylin and eosin(H&E). H&E staining was performed to identify the formation and infiltration of new, functional microvessles.

C-KIT = C-KIT (Homo sapiens, UniProt P10721); assay: In vitro kinase activity assay (Caliper assay format); format: biochemical
FGFR1 = FGFR1 (Homo sapiens, UniProt P11362); assay: In vitro kinase activity assay (HDB Kinase Selectivity Profiling); format: biochemical; details: Kinase Glo Plus assay format
HepG2 cells [20] = assay: HepG2 cell growth with Crizotinib and GNF-5837; format: cell-based; details: Homo sapiens, read-out: growth inhibition rate
Protocol: The inhibition rate was calculated (right panel).

[21] = Crizotinib (16 mg/kg) or GNF-5837 (16 mg/kg) alone or combined, intraperitoneally, 3 weeks

C-KIT, sequence (P10721 26-976): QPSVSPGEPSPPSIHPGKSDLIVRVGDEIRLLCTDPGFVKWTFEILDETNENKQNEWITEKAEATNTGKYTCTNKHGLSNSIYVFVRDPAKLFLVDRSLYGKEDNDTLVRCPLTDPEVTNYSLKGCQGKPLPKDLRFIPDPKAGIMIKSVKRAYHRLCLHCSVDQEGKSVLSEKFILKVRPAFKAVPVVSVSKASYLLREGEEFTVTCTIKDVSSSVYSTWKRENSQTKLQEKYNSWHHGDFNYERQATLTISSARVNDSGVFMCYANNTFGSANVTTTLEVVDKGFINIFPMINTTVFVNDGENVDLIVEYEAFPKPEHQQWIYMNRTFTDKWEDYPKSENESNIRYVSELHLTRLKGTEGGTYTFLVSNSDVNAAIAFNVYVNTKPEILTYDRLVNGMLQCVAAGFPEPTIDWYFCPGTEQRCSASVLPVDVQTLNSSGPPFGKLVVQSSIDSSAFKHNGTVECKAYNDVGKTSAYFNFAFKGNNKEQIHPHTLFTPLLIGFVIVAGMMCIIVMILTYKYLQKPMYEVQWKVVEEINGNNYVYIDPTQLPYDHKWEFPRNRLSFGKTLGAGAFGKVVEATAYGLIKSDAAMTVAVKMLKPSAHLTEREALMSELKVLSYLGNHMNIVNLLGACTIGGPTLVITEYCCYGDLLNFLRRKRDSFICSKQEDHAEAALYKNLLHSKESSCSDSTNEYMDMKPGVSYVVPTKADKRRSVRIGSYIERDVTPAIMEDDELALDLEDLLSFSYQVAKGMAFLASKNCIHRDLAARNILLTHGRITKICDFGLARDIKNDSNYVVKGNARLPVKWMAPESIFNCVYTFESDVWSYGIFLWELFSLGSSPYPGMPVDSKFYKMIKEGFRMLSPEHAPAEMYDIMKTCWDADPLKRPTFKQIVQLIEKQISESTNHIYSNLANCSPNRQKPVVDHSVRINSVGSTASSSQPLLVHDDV
IGF1R, sequence (P08069 31-1367): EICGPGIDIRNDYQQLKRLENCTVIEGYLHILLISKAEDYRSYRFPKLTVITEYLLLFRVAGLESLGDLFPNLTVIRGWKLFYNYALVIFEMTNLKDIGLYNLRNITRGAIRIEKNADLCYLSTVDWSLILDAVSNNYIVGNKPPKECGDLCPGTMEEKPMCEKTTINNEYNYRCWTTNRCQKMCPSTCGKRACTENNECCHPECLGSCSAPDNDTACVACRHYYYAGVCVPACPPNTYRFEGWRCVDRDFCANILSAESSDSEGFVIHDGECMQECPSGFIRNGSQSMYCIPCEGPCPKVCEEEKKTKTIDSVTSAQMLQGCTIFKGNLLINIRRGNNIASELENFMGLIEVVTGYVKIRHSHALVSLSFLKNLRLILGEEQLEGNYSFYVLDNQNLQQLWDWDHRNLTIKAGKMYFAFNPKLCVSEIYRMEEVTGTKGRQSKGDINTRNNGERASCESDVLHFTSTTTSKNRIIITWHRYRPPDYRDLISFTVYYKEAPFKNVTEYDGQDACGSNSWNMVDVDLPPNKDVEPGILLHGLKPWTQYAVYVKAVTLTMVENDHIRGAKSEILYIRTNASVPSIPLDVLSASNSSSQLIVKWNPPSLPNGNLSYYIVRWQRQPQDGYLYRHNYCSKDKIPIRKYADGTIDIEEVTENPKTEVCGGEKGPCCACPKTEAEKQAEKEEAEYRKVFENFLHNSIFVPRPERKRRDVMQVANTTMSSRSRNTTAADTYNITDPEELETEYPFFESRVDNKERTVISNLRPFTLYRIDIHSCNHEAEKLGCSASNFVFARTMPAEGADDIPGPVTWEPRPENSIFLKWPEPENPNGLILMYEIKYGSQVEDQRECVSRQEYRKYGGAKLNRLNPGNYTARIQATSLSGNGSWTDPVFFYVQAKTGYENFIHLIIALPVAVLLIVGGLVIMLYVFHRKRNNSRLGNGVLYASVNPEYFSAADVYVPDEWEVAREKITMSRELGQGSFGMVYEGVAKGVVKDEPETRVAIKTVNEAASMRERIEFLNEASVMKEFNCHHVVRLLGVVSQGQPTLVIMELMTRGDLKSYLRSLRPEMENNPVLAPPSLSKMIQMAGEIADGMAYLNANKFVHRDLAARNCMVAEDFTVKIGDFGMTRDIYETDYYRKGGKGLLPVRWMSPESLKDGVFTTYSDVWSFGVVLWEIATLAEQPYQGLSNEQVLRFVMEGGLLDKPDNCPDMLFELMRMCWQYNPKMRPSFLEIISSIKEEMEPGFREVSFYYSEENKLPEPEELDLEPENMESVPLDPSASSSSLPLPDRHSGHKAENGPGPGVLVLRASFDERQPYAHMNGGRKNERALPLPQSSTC
FLT1, sequence (P17948 27-1338): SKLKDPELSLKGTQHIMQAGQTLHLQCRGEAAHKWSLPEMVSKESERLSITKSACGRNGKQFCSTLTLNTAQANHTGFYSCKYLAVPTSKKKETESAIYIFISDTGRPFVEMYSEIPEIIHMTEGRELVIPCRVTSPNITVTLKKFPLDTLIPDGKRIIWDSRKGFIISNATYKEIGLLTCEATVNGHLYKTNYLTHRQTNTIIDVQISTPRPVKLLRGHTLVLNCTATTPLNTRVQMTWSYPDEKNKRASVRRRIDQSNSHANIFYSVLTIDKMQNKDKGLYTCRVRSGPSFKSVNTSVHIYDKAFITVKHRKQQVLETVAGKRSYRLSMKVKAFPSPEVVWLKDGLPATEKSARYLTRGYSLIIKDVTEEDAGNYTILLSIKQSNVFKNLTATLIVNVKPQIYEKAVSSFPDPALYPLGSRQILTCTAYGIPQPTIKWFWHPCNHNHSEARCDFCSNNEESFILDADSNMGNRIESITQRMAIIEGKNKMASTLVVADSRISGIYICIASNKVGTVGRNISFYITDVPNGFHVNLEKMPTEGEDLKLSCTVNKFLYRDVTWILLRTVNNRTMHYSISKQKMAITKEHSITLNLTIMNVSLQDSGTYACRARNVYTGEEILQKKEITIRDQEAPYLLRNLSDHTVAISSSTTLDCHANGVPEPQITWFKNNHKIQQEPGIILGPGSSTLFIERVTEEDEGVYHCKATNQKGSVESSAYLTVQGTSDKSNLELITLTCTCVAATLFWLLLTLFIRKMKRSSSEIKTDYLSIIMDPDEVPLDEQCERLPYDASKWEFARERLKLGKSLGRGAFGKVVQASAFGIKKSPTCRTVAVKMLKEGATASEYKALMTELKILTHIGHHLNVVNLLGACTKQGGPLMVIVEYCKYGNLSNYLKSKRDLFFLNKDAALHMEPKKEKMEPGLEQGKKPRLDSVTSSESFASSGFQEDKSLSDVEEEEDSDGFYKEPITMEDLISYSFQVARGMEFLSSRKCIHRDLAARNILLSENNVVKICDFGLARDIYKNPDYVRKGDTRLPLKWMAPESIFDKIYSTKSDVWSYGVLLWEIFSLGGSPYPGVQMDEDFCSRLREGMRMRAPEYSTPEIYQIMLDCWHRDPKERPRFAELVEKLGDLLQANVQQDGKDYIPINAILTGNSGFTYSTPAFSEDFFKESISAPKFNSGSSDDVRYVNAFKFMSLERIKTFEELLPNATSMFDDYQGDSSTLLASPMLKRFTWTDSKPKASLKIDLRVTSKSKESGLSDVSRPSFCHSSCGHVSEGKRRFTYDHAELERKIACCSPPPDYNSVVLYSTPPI
C-KIT(v654A), sequence (P10721 26-976 V654A): as the sequence (P10721 26-976) above, with V629A counted along it
EPHA1, sequence (P21709 26-976): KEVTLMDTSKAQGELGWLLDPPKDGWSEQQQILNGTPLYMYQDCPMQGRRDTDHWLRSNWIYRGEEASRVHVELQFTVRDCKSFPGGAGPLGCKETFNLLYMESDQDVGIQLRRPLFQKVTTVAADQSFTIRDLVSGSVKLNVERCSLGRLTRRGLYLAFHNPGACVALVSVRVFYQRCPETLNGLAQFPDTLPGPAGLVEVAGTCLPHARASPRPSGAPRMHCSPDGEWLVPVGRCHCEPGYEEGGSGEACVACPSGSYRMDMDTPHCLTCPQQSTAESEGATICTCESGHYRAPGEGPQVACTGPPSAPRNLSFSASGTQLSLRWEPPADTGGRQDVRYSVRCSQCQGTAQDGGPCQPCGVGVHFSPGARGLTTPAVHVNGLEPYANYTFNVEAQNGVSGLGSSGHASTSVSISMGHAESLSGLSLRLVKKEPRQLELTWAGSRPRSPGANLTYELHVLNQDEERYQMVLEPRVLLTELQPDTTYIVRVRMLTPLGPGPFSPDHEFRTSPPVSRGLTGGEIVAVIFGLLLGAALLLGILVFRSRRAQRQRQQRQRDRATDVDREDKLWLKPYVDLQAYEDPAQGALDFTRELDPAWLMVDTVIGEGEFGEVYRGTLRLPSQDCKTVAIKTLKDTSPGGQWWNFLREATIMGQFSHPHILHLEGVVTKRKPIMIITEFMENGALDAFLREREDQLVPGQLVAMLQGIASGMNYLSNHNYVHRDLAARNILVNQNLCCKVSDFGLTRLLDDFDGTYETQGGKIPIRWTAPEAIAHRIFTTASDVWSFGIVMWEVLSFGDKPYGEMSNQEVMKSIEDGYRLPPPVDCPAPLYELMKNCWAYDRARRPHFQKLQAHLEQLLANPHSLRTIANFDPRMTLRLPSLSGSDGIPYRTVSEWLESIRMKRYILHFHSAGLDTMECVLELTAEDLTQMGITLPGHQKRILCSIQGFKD

Cc1ccccc1NS(=O)(=O)c1ccc2c(c1)/C(=C/c1nc3ccccc3[nH]1)C(=O)N2 [Indo5, 3-(1H-benzimidazol-2-methylene)-5-(2-methylphenylaminosulfo)-2-indolone]
IC50 (C-KIT(v654A)): > 10 µM | apoptosis in tumor tissues (TUNEL staining) [1]: increased apoptosis | IC50 (EGFR): > 10 µM | BDNF-induced cell migration (HepG2 cells [2]): suppressed | IC50 (EPHA1): > 10 µM | IC50 (PDGFRα): > 10 µM | IC50 (Ephb1): > 10 µM | mouse body weights [3]: almost unchanged | NGF-induced TrkA signaling (TrkA signaling): almost completely inhibited | IC50 (HCC-LM3): 1.873 ± 0.012 µM | IC50 (L02): 32.52 ± 0.075 µM | IC50 (MRC-5): > 100 µM | IC50 (NCI-H460): 9.185 ± 0.035 µM | IC50 (SK-N-SH): 2.982 ± 0.019 µM | IC50 (A549): 1.62 ± 0.008 µM | IC50 (SMMC-7721): 3.598 ± 0.022 µM | IC50 (BEL-7402): 5.605 ± 0.017 µM | IC50 (IGF1R): > 10 µM | effect on cell proliferation (wild-type Ba/F3 cells): no obvious effect | IC50 (EGFR(T790,L858R)): > 10 µM | IC50 [4]: 2.98 to 9.19 µM | HCC metastasis in lung (HCC metastasis in lung): dramatic decrease | cell apoptosis (Ba/F3-Tpr-Met cells [5]): markedly induced cell apoptosis | xenograft tumor growth (SMMC-7721 xenograft): dose-dependent inhibitory effect | IC50 (Ba/F3-Tpr-Met cells [6]): 0.618 µM | HGF-induced cell migration (HepG2 cells [7]): significantly suppressed | IC50 (InsR): > 10 µM | activation of EGF receptor-mediated signaling pathway [8]: no effect | HGF-induced c-Met signaling pathway activation (c-Met signaling pathway; HepG2, 0.5 μM Indo5, pretreated 2 h, HGF 20 ng/ml 5 min): dramatically suppressed | body weight change ([9]; liver orthotopic mouse model, Indo5 up to highest dose (48 mg/kg), 48 mg/kg): no obvious weight changes; also recorded: not associated with loss of body weight | activation of VEGF receptor-mediated signaling pathway [10]: no effect | rate of tumor growth inhibition ([11]; orthotopic HepG2, 8 mg/kg intraperitoneally once daily for 3 weeks): approximately 49% | rate of tumor growth inhibition ([11]; orthotopic HepG2, 16 mg/kg intraperitoneally once daily for 3 weeks): 61.2% | overall health of the animals ([11]; orthotopic HepG2 model, Indo5 vs control, data not shown): not adversely affected | IC50 (RET): > 10 µM | IC50 (MHCC97L): 1.28 ± 0.016 µM | IC50 (MHCC97H): 1.11 ± 0.018 µM | IC50 [12]: 1.11 to 1.87 µM | IC50 (AXL): > 10 µM | IC50 (FLT1): > 10 µM | IC50 [13]: > 30 µM | effect on cell proliferation (MDCK cells [14]): No obvious effect | effect on cell proliferation (HepG2 cells [15]): weak inhibitory effect | cytotoxicity (mouse hepatocytes; 0.5 μM Indo5, 72 h, data not shown): no cytotoxicity was observed | HGF-induced cell proliferation (mouse hepatocytes; mouse hepatocytes, HGF 20 ng/ml 48 h, MTS): dose-dependently inhibited | half-life (Half-life in plasma): 5 min | BDNF-induced TrkB signaling (TrkB signaling; HepG2, Indo5 pretreated 2 h, BDNF 50 ng/ml 5 min, dose-dependent): decreased | survival rate ([16]; 24 mg/kg Indo5 once daily by oral gavage): 40% | overall survival rate ([16]; 48 mg/kg Indo5 once daily by oral gavage): 77.7% | HGF-stimulated cell scattering (MDCK cells [17]): blocked | tumor cells in liver tissue (histological examination) (orthotopic tumors): no obvious tumor cells | BDNF-induced growth (Ba/F3-TrkB cells): inhibited | xenograft tumor growth (SK-N-SH xenograft): dose-dependent inhibitory effect | inhibition rate (tumor weight) ([18]; Indo5 16 mg/kg, intraperitoneally once daily, 21 days): 65.2% | HGF-induced vasculature formation in vivo [19]: dramatically blocked | IC50 (C-KIT): > 10 µM | IC50 (FGFR1): > 10 µM

Cc1ccc(NC(=O)Nc2cc(C(F)(F)F)ccc2F)cc1Nc1ccc2c(c1)NC(=O)/C2=C\c1ccc[nH]1 [GNF-5837]
inhibition at 2 µM (HepG2 cells [20]; HepG2, 2 μM GNF-5837, 48 h): 14% | HGF-induced c-Met signaling pathway activation (c-Met signaling pathway; HepG2, GNF-5837 (4 μM) pretreated 2 h, HGF 20 ng/ml): suppressed | inhibition rate (tumor weight) [18, 21]: 21%

C[C@@H](Oc1cc(-c2cnn(C3CCNCC3)c2)cnc1N)c1c(Cl)ccc(F)c1Cl [Crizotinib]
inhibition at 0.1 µM (HepG2 cells [20]; HepG2, 100 nM Crizotinib, 48 h): 30% | BDNF-induced TrkB signaling pathway activation (TrkB signaling; HepG2, Crizotinib (0.5 μM) pretreated 2 h, BDNF 50 ng/ml): significant attenuation | inhibition rate (tumor weight) [18, 21]: 28%

CNC(=O)c1cc(Oc2ccc(NC(=O)Nc3ccc(Cl)c(C(F)(F)F)c3)cc2)ccn1 [Sorafenib, reference compound]
body weight loss ([9]; sorafenib treatment, mice): up to 10% | survival rate ([16]; 50 mg/kg Sorafenib once daily by oral gavage): 44%
